Results taken from publication PMC8434007 (Molecules, 2021).
Where a name gives a salt, the structure may show the parent alone. Read-outs that look alike come from different tables or passages of the source.

Legend:
Assay in all cases: biochemical
bovine thrombin = target: T1, bovine thrombin (Bos taurus, UniProt P00735); details: for inhibition at 50 µM: read-out: inhibition percentage ± SEM, thr
T1 construct: purchased Sigma-Aldrich (Milan, Italy)

human recombinant fXa = target: T2, human recombinant fXa (Homo sapiens, UniProt P00742); details: for inhibition at 50 µM: read-out: inhibition percentage ± SEM, fXa
T2 construct: purchased Chromogenix AB-Instrumentation Laboratories (Milan, Italy)

[1] = target: T3, electric eel acetylcholinesterase (eeAChE) (Electrophorus electricus, UniProt O42275); format: biochemical; details: for inhibition at 10 µM: read-out: inhibition percentage ± SEM, AChE
T3 construct: AChE (from electric eel) and BChE (from horse serum); from tissue

[2] = target: T4, horse serum butyrylcholinesterase (eqBChE) (Equus caballus, UniProt P81908); details: for inhibition at 10 µM: read-out: inhibition percentage ± SEM, BChE
T4 construct: AChE (from electric eel) and BChE (from horse serum); from tissue; host or cells: horse serum

[3] = bovine serum thrombin, Cheng–Prousoff from IC50, pH 8, read-out: Ki thr
[4] = human recombinant fXa, Cheng–Prousoff from IC50, pH 8, read-out: Ki fXa
[5] = electric eel AChE, Cheng–Prousoff from IC50, read-out: Ki AChE
[6] = horse serum BChE, Cheng–Prousoff from IC50, read-out: Ki BChE

T3 sequence (O42275 24-633): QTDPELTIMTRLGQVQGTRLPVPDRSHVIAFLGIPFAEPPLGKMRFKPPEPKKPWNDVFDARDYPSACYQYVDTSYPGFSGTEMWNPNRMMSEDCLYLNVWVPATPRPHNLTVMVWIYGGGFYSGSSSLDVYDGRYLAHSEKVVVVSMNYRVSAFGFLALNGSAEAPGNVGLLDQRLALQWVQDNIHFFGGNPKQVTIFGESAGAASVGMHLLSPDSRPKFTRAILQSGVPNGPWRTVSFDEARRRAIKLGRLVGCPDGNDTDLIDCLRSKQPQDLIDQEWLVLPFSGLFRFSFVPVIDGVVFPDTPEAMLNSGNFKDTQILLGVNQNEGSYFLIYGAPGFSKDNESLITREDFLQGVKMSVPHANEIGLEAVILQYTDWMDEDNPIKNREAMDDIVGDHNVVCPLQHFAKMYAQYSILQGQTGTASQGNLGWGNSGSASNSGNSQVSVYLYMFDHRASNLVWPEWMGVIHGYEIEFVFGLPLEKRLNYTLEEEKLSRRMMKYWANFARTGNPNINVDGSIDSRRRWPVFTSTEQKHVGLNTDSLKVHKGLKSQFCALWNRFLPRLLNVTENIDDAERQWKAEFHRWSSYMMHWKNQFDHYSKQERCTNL
T4 sequence (P81908 whole entry): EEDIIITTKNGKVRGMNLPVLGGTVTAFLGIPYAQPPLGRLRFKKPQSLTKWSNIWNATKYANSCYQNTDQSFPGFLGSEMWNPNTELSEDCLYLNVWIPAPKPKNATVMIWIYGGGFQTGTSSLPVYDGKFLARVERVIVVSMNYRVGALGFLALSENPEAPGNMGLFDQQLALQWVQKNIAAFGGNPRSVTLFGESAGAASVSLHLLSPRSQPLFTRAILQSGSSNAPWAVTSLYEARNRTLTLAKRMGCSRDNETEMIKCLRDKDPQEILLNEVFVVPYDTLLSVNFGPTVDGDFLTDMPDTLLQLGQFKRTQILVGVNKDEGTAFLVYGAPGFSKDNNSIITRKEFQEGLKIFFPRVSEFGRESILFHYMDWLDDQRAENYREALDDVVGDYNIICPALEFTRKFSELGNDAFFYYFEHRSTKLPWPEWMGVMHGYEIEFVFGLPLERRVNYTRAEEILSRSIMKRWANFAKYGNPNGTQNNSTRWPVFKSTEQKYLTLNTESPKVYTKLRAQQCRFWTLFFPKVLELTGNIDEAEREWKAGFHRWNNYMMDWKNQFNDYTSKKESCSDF
T2 sequence (P00742 235-488 limits assumed): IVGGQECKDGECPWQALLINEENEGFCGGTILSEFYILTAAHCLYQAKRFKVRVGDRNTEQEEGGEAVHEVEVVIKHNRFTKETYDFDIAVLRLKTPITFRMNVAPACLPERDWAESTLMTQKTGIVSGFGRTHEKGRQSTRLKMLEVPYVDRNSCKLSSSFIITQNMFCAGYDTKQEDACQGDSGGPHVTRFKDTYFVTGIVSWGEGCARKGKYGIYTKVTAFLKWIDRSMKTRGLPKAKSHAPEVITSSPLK
T2 sequence (P00742 41-179 partner limits assumed): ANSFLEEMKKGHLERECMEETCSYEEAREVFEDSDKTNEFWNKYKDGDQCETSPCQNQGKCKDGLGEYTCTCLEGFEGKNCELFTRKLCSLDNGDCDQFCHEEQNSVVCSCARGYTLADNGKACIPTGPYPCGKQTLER

O=C(Nc1cccc(OCc2cccc(F)c2)c1)C1CCN(c2ccncc2)CC1 [Compound 1]
Ki (bovine thrombin; [3]): 6 nM | Ki (human recombinant fXa; [4]): 5600 nM | mechanism of eeAChE inhibition ([1]; Lineweaver–Burk, changed both Vmax and KM): noncompetitive/mixed-type inhibition | Ki [1, 5]: 58 nM | Ki ([1]; read-out: Ki eeAChE from replot of Lineweaver–Burk slopes versus inhibitor concentration): 56 nM | experimental ΔΔG score ([1]; thr vs AChE inhibition, one unit higher than predicted by docking): about 1.3 kcal/mol | Ki [2, 6]: 6950 nM

O=C(Nc1cccc(OCc2ccc(F)cc2)c1)C1CCN(c2ccncc2)CC1 [Compound 2]
Ki (bovine thrombin; [3]): 210 nM | Ki (human recombinant fXa; [4]): 1100 nM | Ki [1, 5]: 240 nM | Ki [2, 6]: 1210 nM

O=C(Nc1cccc(COc2ccc(F)cc2)c1)C1CCN(c2ccncc2)CC1 [Compound 3]
Ki (bovine thrombin; [3]): 26800 nM | Ki (human recombinant fXa; [4]): 774 nM | Ki [1, 5]: 165 nM | Ki [2, 6]: 2600 nM

O=C(Nc1ccc(OCc2cccc(F)c2)cc1)C1CCN(c2ccncc2)CC1 [Compound 4]
Ki (bovine thrombin; [3]): 6700 nM | Ki (human recombinant fXa; [4]): 25100 nM | Ki [1, 5]: 3880 nM | Ki [2, 6]: 425 nM

O=C(Nc1ccccc1OCc1cccc(F)c1)C1CCN(c2ccncc2)CC1 [Compound 5]
inhibition at 50 µM (bovine thrombin; bovine serum thrombin): 10% | inhibition at 50 µM (human recombinant fXa; human recombinant fXa): 2% | inhibition at 10 µM [1]: 12% | Ki [2, 6]: 655 nM

O=C(Nc1cccc(OCCc2cccc(F)c2)c1)C1CCN(c2ccncc2)CC1 [Compound 6]
Ki (bovine thrombin; [3]): 2140 nM | Ki (human recombinant fXa; [4]): 488 nM | Ki [1, 5]: 369 nM | Ki [2, 6]: 1750 nM

O=C(Nc1cccc(OCCc2ccc(F)cc2)c1)C1CCN(c2ccncc2)CC1 [Compound 7]
Ki (bovine thrombin; [3]): 4460 nM | Ki (human recombinant fXa; [4]): 133 nM | Ki [1, 5]: 650 nM | Ki [2, 6]: 5630 nM

O=C(Nc1cccc(CCc2ccc(F)cc2)c1)C1CCN(c2ccncc2)CC1 [Compound 8]
Ki (bovine thrombin; [3]): 3720 nM | Ki (human recombinant fXa; [4]): 37700 nM | Ki [1, 5]: 495 nM | Ki [2, 6]: 8200 nM

O=C(Nc1ccc(F)cc1)c1cccc(NC(=O)C2CCN(c3ccncc3)CC2)c1 [Compound 9, N-(3-(4-fluorophenylcarbamoyl)phenyl)-1-(pyridin-4-yl)piperidine-4-carboxamide]
Ki (bovine thrombin; [3]): 4470 nM | Ki (human recombinant fXa; [4]): 4040 nM | Ki [1, 5]: 270 nM | Ki [2, 6]: 8250 nM

O=C(NCc1ccc(F)cc1)c1cccc(NC(=O)C2CCN(c3ccncc3)CC2)c1 [Compound 10, N-(3-(4-fluorobenzylcarbamoyl)phenyl)-1-(pyridin-4-yl)piperidine-4-carboxamide]
Ki (bovine thrombin; [3]): 10600 nM | Ki (human recombinant fXa; [4]): 2400 nM | Ki [1, 5]: 255 nM | Ki [2, 6]: 370 nM

O=C(Nc1ccc(F)cc1)Nc1cccc(NC(=O)C2CCN(c3ccncc3)CC2)c1 [Compound 12, 1-(3-(1-(pyridin-4-yl)piperidine-4-carboxamido)phenyl)-3-(4-fluorophenyl)urea]
Ki (bovine thrombin; [3]): 26700 nM | Ki (human recombinant fXa; [4]): 16500 nM | Ki [1, 5]: 735 nM | inhibition at 10 µM ([2]; horse serum BChE): 15%

N=C(N)N1CCC(C(=O)Nc2cccc(OCc3ccc(F)cc3)c2)CC1 [Compound 13]
Ki (bovine thrombin; [3]): 20000 nM | Ki (human recombinant fXa; [4]): 33000 nM | Ki [1, 5]: 10000 nM | Ki [2, 6]: 260 nM

CC(C)N1CCC(C(=O)Nc2cccc(OCc3ccc(F)cc3)c2)CC1 [Compound 14, N-(3-(4-fluorobenzyloxy)phenyl)-1-isopropylpiperidine-4-carboxamide]
inhibition at 50 µM (bovine thrombin; bovine serum thrombin): 5% | inhibition at 50 µM (human recombinant fXa; human recombinant fXa): 28% | Ki [1, 5]: 15500 nM | Ki ([2]; eqBChE 0.18 U/mL, butyrylthiocholine iodide 50-300 µM, inhibitor 0-1 µM, x-axis intercept, read-out: Ki eqBChE from replot of Lineweaver–Burk slopes versus [I]): 104 nM | Ki [2, 6]: 130 nM

O=C(Nc1cccc(OCc2ccc(F)cc2)c1)C1CCN(C2CCCC2)CC1 [Compound 15, N-(3-(4-fluorobenzyloxy)phenyl)-1-cyclopentylpiperidine-4-carboxamide]
Ki (bovine thrombin; [3]): 30000 nM | inhibition at 50 µM (human recombinant fXa; human recombinant fXa): 40% | inhibition at 10 µM [1]: 27% | Ki [2, 6]: 115 nM

CC(C)N1CCC(C(=O)Nc2ccc(OCc3ccc(F)cc3)cc2)CC1 [Compound 16, N-(4-(4-fluorobenzyloxy)phenyl)-1-isopropylpiperidine-4-carboxamide]
inhibition at 50 µM (bovine thrombin; bovine serum thrombin): 11% | inhibition at 50 µM (human recombinant fXa; human recombinant fXa): 5% | Ki [1, 5]: 6250 nM | Ki [2, 6]: 2360 nM

O=C(Nc1ccc(OCc2ccc(F)cc2)cc1)C1CCN(C2CCCC2)CC1 [Compound 17, N-(4-(4-fluorobenzyloxy)phenyl)-1-cyclopentylpiperidine-4-carboxamide]
inhibition at 50 µM (bovine thrombin; bovine serum thrombin): 25% | inhibition at 50 µM (human recombinant fXa; human recombinant fXa): 28% | Ki [1, 5]: 3520 nM | Ki [2, 6]: 255 nM

CC(C)N1CCC(C(=O)Nc2ccccc2OCc2ccc(F)cc2)CC1 [Compound 18, N-(2-(4-fluorobenzyloxy)phenyl)-1-isopropylpiperidine-4-carboxamide]
Ki (bovine thrombin; [3]): 5350 nM | Ki (human recombinant fXa; [4]): 10500 nM | inhibition at 10 µM [1]: 15% | Ki [2, 6]: 378 nM

O=C(Nc1ccccc1OCc1ccc(F)cc1)C1CCN(C2CCCC2)CC1 [Compound 19, N-(2-(4-fluorobenzyloxy)phenyl)-1-cyclopentylpiperidine-4-carboxamide]
inhibition at 50 µM (bovine thrombin; bovine serum thrombin): 12% | inhibition at 50 µM (human recombinant fXa; human recombinant fXa): 28% | inhibition at 10 µM [1]: 35% | Ki [2, 6]: 215 nM

CC(C)N1CCC(C(=O)Nc2ccccc2OCc2ccc(Cl)cc2)CC1 [Compound 20, N-(2-(4-chlorobenzyloxy)phenyl)-1-isopropylpiperidine-4-carboxamide]
inhibition at 50 µM (bovine thrombin; bovine serum thrombin): 20% | Ki (human recombinant fXa; [4]): 484 nM | inhibition at 10 µM [1]: 11% | Ki [2, 6]: 105 nM

N=C(N)N1CCC(C(=O)Nc2ccccc2OCc2ccc(Cl)cc2)CC1 [Compound 21, N-(2-(4-Chlorobenzyloxy)phenyl)-1-amidinopiperidine-4-carboxamide hydrochloride]
Ki (bovine thrombin; [3]): 25900 nM | Ki (human recombinant fXa; [4]): 60600 nM | inhibition at 10 µM [1]: 38% | Ki [2, 6]: 8200 nM

CC(C)N1CCC(C(=O)Nc2cccc(OCc3ccc(-c4ccc(Cl)cc4)cc3)c2)CC1 [Compound 22]
inhibition at 50 µM (bovine thrombin; bovine serum thrombin): 5% | Ki (human recombinant fXa; [4]): 165 nM | Ki [1, 5]: 3330 nM | inhibition at 10 µM ([2]; horse serum BChE): 35%

N=C(N)N1CCC(C(=O)Nc2cccc(OCc3ccc(-c4ccc(Cl)cc4)cc3)c2)CC1 [Compound 23]
Ki (bovine thrombin; [3]): 2040 nM | Ki (human recombinant fXa; human fXa, read-out: Ki fXa): 31 ± 1 nM | Ki [1, 5]: 5800 nM | Ki [2, 6]: 90 nM

CC(C)N1CCC(C(=O)Nc2cccc(OCc3cc(-c4ccc(Cl)cc4)on3)c2)CC1 [Compound 24]
inhibition at 50 µM (bovine thrombin; bovine serum thrombin): 15% | Ki (human recombinant fXa; [4]): 218 nM | Ki [1, 5]: 6300 nM | Ki [2, 6]: 3060 nM

N=C(N)N1CCC(C(=O)Nc2cccc(OCc3cc(-c4ccc(Cl)cc4)on3)c2)CC1 [Compound 25]
Ki (bovine thrombin; [3]): 630 nM | Ki (human recombinant fXa; [4]): 26 nM | Ki [1, 5]: 11000 nM | Ki [2, 6]: 7670 nM

CC(C)N1CCC(C(=O)Nc2ccccc2OCc2cc(-c3ccc(Cl)cc3)on2)CC1 [Compound 26]
Ki (bovine thrombin; [3]): 13700 nM | Ki (human recombinant fXa; [4]): 7 nM | Ki [1, 5]: 11500 nM | Ki [2, 6]: 1110 nM

N=C(N)N1CCC(C(=O)Nc2ccccc2OCc2cc(-c3ccc(Cl)cc3)on2)CC1 [Compound 27]
Ki (bovine thrombin; [3]): 21200 nM | Ki (human recombinant fXa; [4]): 60 nM | inhibition at 10 µM [1]: 16% | Ki [2, 6]: 10000 nM

N=C(N)N1CCC(C(=O)Nc2cccc(OCc3cc(-c4cccc(Cl)c4)on3)c2)CC1 [Compound 29]
Ki (bovine thrombin; [3]): 15300 nM | Ki (human recombinant fXa; [4]): 388 nM | Ki [1, 5]: 10000 nM | Ki [2, 6]: 1120 nM

CC(C)N1CCC(C(=O)Nc2cccc(OCc3cc(-c4ccc(Cl)s4)on3)c2)CC1 [Compound 30]
Ki (bovine thrombin; [3]): 16000 nM | Ki (human recombinant fXa; [4]): 90 nM | Ki [1, 5]: 5100 nM | Ki [2, 6]: 2130 nM

N=C(N)N1CCC(C(=O)Nc2cccc(OCc3cc(-c4ccc(Cl)s4)on3)c2)CC1 [Compound 31]
Ki (human recombinant fXa): 15 nM | inhibition at 10 µM [1]: 31% | Ki [2, 6]: 1620 nM

[H]/N=C(/N)c1ccc(NCc2nc3cc(C(=O)N(CCC(=O)O)c4ccccn4)ccc3n2C)cc1 [dabigatran, reference compound]
Ki (bovine thrombin): 4.2 nM | inhibition at 10 µM ([2]; horse serum BChE): 36%

N-(2-(3-chlorobenzyloxy)phenyl)-1-isopropylpiperidine-4-carboxamide [Compound 28]
Ki (bovine thrombin; [3]): 23000 nM | Ki (human recombinant fXa; [4]): 867 nM | Ki [1, 5]: 7000 nM | Ki [2, 6]: 4100 nM
